Reference: patent US6667278B2, “Non-steroidal mimetics of brassinolide” (University Technologies International Inc., priority 2000, dated 2003)

Legend:
[1] = test system: dwarf rice Oryza satina var. Tan-ginbozu; experiment: rice leaf lamina inclination bioassay; assay type: in vivo
Protocol: Mimetics 3-12, along with brassinolide for comparison, were subjected to the rice leaf lamina inclination bioassay^30. This technique is a rapid, highly sensitive and convenient means for detecting and measuring brassinosteroid bioactivity. Strongly active brassinosteroids such as brassinolide can be readily detected at doses as low as 1 ng/plant. The assay is based on the downward movement response of the second leaf lamina angle of rice seedlings to the application of active brassinosteroids. Thus, a decrease in the leaf angle occurs from about 160 degrees (i.e. nearly upright) in control plants to angles of less than 90 degrees when a strong response is measured. A plot of leaf lamina angle vs. the logarithm of the dose in ng provides a convenient indication of bioactivity.
Brassinosteroids show synergy with auxins such as indole-3-acetic acid (IAA) in this bioassay^7,30,31. Thus, co-application of a given dose of the brassinosteroid with IAA generally elicits a similar decrease in the leaf lamina angle as would be observed with a dose one or two orders of magnitude higher of the brassinosteroid alone. […] The bioassays of mimetics 3-12 were therefore run both in the presence and absence of 1000 ng of added IAA and mimetic 11 was also bioassayed in the presence of 5000 ng of IAA.
Mimetics 3-12, along with brassinolide as a standard, were tested for biological activity by means of the rice leaf lamina assay, using a dwarf rice Oryza satina var. Tan-ginbozu, as described^30. The compounds were dissolved in 95% ethanol, except for mimetic 11 where DMSO was used due to poor solubility in ethanol. To a solution of mimetic 11 in 50 microliters of DMSO was added 550 microliters of a 2.5% aqueous solution of Atlas®, an ICI formulating material, to improve uptake. The test solutions were then applied as 0.5 μl microdrops to the rice plants 48 h after planting the germinated seeds on 0.8% water agar. At high doses, several rounds of application of the 0.5 μl microdrops were required to attain the desired dose per plant. Where IAA was a co-treatment, 1,000 or 5,000 ng of IAA was similarly applied per plant ca. 2 h prior to the application of brassinolide and mimetics 3-12. The resultant leaf lamina angle was measured 60-65 h later. For an individual bioassay, each data point is the mean of the leaf angles from ca. 36 plants for doses up to 100 ng and from ca. 24 plants for the 1000 and 10,000 ng doses. Parallel control applications of solvent and IAA (1000 ng) were also carried out. […] Similarly, the results for brassinolide plus IAA, which were reported earlier,^14,16,17a are not shown here for purposes of clarity.

solubility in ethanol = assay type: physicochemical
[2] = test system: dwarf rice Oryza satina var. Tan-ginbozu; conditions: in vivo; cited from earlier work
rice, beans and others = conditions: applied exogenously; cited from earlier work
[3] = applied together with IAA in 95% ethanol
[4] = all dosage levels, with or without IAA application

Compound: Oc1ccc(C=Cc2ccc(O)c3c2CC(O)C(O)C3)c2c1CC(O)C(O)C2 (mixture of isomers) [Mimetic 6, (E)-(±)-1,2-Bis[4,6α,7α-trihydroxy-5,6,7,8-tetrahydronaphthyl]ethene and its Meso Isomer]
- bioactivity in the rice leaf lamina inclination assay [1, 3]: significant bioactivity
- dose that produced a significant bioassay response [1, 3]: 10000 ng

Compound: O=C1CC=C(C#CC2=CCC(=O)C3CC(O)C(O)CC23)C2CC(O)C(O)CC12 (mixture of isomers) [Mimetic 10, (±)-1,2-Bis[trans-(4aα,8aβ)-4-oxo-6α,7α-dihydroxy-4a,5,6,7,8,8a-hexahydro-(3H)-naphthyl]ethyne and its Meso Isomer]
- bioactivity in the rice leaf lamina inclination assay [1, 4]: devoid of activity

Compound: O=C1CC=C(C=CC2=CCC(=O)C3CC(O)C(O)CC23)C2CC(O)C(O)CC12 (mixture of isomers) [Mimetic 11, (E)-1,2-Bis[trans-(4aα,8aβ)-4-oxo-6α,7α-dihydroxy-4a,5,6,7,8,8a-hexahydro-(3H)-naphthyl]ethene and its Meso Isomer]
- solubility in ethanol (solubility in ethanol): poor
- bioactivity in the rice leaf lamina inclination assay ([1]; IAA increased to 5000 ng, DMSO diluted with 2.5% aqueous Atlas, compared with 1000 ng IAA): even further enhanced
- bioactivity in the rice leaf lamina inclination assay ([1]; applied together with 1000 ng of IAA, DMSO diluted with 2.5% aqueous Atlas): active across a wide range of doses
- dose at which significant activity is displayed ([1]; with 5000 ng of IAA, DMSO/Atlas): 0.01 ng

Compound: Oc1cc(C#Cc2ccc3c(c2)CC(O)C(O)C3)cc2c1CC(O)C(O)C2 (racemic) [Mimetic 4, (±)-1-[4,6α,7α-Trihydroxy-5,6,7,8-tetrahydronaphthyl]-2-[6α′,7α∝-dihydroxy-5′,6′,7′,8′-tetrahydronaphthyl]ethyne as Two (±) Pairs]
- bioactivity in the rice leaf lamina inclination assay [1, 3]: modest, but statistically significant activity

Compound: Oc1ccc(C#Cc2ccc(O)c3c2CC(O)C(O)C3)c2c1CC(O)C(O)C2 (single isomer, unassigned) [Mimetic 3, (±)-1,2-Bis[4,6α,7α-trihydroxy-5,6,7,8-tetrahydronaphthyl]ethyne and its Meso Isomer]
- bioactivity in the rice leaf lamina inclination assay [1, 3]: modest, but statistically significant activity
- dose that produced a significant bioassay response [1, 3]: 10,000 ng

Compound: OC1Cc2ccc(C#Cc3ccc4c(c3)CC(O)C(O)C4)cc2CC1O (single isomer, unassigned) [Mimetic 5, (±)-1,2-Bis[6α,7α-dihydroxy-5,6,7,8-tetrahydronaphthyl]ethyne and its Meso Isomer]
- bioactivity in the rice leaf lamina inclination assay [1, 4]: completely inactive

Compound: OC1Cc2ccc(/C=C/c3ccc4c(c3)CC(O)C(O)C4)cc2CC1O (single isomer, unassigned) [Mimetic 7, (E)-(±)-1,2-Bis[6α,7α-dihydroxy-5,6,7,8-tetrahydronaphthyl]ethene and its Meso Isomer]
- bioactivity in the rice leaf lamina inclination assay [1, 4]: completely inactive

Compound: Oc1ccc(CCc2ccc(O)c3c2CC(O)C(O)C3)c2c1CC(O)C(O)C2 (single isomer, unassigned) [Mimetic 8, (±)-1,2-Bis[4,6α,7α-trihydroxy-5,6,7,8-tetrahydronaphthyl]ethane and its Meso Isomer]
- bioactivity in the rice leaf lamina inclination assay [1, 4]: no bioactivity

Compound: O=C1CCC(=NN=C2CCC(=O)C3CC(O)C(O)CC23)C2CC(O)C(O)CC12 (single isomer, unassigned) [Mimetic 12, 6,7-Dihydroxy-2,3,4a,5,6,7,8,8a-octahydro-4-oxo-naphthalenone Azine (Mixture of Isomers)]
- bioactivity in the rice leaf lamina inclination assay [1, 4]: devoid of activity

Compound: O=C(O)Cc1c[nH]c2ccccc12 [IAA, indole-3-acetic acid, reference compound]
- effect in the bioassay ([1]; applied on its own): without significant effect

Compound: Oc1cc2c(O)ccc(CCc3ccc(O)c4cc(O)c(O)cc34)c2cc1O [Mimetic 9, 1,2-Bis(4,6,7-trihydroxynaphthyl)ethane]
- bioactivity in the rice leaf lamina inclination assay [1, 4]: no bioactivity

Compound: CC(C)[C@H](C)[C@@H](O)[C@H](O)[C@@H](C)[C@H]1CC[C@H]2[C@@H]3COC(=O)[C@H]4C[C@H](O)[C@H](O)C[C@]4(C)[C@H]3CC[C@]12C [brassinolide, (22R, 23R, 24S)-2α,3α,22,23-tetrahydroxy-24-methyl-B-homo-7-oxa-5α-cholestan-6-one]
- dose as low as which readily detected [2]: 1 ng/plant
- dose as low as which biological activity is manifested (rice, beans and others): one
